Source: patent US20030226169A1, “DNA sequences encoding antifungal proteins” (priority 1995, published 2003)
In brackets after ≈: the same amount, converted by molar mass. Where two headings read alike, the source gives them in different places. Residues, ends and D or L forms follow the SMILES beside them.

Assays:
[1] = system: Ascophyta pisi (MUCL 30164); type: cell-based; settings: ½ PDB; for A PISI IC: the source numbers peptides by N-terminal amino acid
Protocol: The following fungal strains were used: Alternaria brassicicola (MUCL 20297), Ascophyta pisi (MUCL 30164), Botrytis cinerea (MUCL 30158), Fusarium culmorum (IMI 180420) and Verticillium dahliae (MUCL 19210).
Fungi were grown on six cereal agar plates at room temperature and under white fluorescent light except for F culmorum and V dahliae which were grown in the dark. The duration of the spore harvest varied between 10 and 25 days depending on the strain. Spores were collected as follows. Five to ten ml of sterile milli-Q water was poured into each dish and the surface of the agar was rubbed with a sterile spatula to obtain a suspension containing mycelium and spores. This suspension was filtered through a sterile glasswool-plugged funnel and the filtrate containing the spores was collected in a sterile polypropylene centrifuge tube. The A brassicicola spores were suspended in sterile 0.1 Tween 20 (Merk, 822184) due to their hydrophobic nature. The spore suspensions were then washed twice by centrifugation at 2,400×g for 15 minutes and resuspended in a small volume of steril milli-Q water. The spore density was determined in a counting chamber and then adjusted to 4×10^7 spores per ml. Aliquots of the spore suspension were transferred to sterile microtubes and an equal volume of sterile 50% glycerol (Merck, 4091) was added to each tube so that a final spore suspension of 2×10^7 spores per ml in 25% glycerol was obtained. After careful mixing of the stock, the spore suspension was transferred in 100 μl aliquots to sterile microtubes and stored at −80° C.
Antifungal activity was measured by photospectrometry as described by Broekaert et al, (1990, FEMS Microbiol Lett, 69:55-60). Tests were performed by adding 20 μl of test solution and 80 μl of a fungal spore suspension (2×10^4 spores/ml) per well in a sterile flat-bottom 96-well microtiterplate. The spore suspension was prepared by diluting the stock spore suspension ([…] in 25% glycerol) 1:1000 in half-strength potato dextrose broth. A positive growth control consisting of eight wells containing 20 μl of sterile milli-Q water and 80 μl of the fungal spore suspension was included in each test. The microtiterplates were incubated (with the lid on) in an aerated place at room temperature and under conditions of darkness for all test organisms.
After 30 minutes of incubation (when the spores are settled on the well bottom) the optical density was measured in a microplate reader (Bio Rad 3550-UV) at 595 nm. Incubation of the microtiterplates continued until the optical density of the control microculture was between 0.250 and 0.500, which took approximately 72 hours (96 hours for V dahliae). Percentage of growth inhibition (% GI) was estimated as 100 times the ratio of the corrected absorbance of the control microculture minus the corrected absorbance of the test microculture over the corrected absorbance of the control microculture at 595 nm. The corrected absorbance values equal the absorbance at 595 nm of the culture measured after 72 or 96 hours minus the absorbance at 595 nm measured after 30 minutes.
% GI=[(Acontrol−Atest/Acontrol]×100
where Acontrol=(A72/96h−A30min)control
The IC50 value is defined as the concentration that gives a 50% growth inhibition after 72 or 96 hours of incubation. The minimum inhibitory concentration (MIC) corresponds to the minimum concentration that gives 100% growth inhibition after 72 or 96 hours incubation.

[2] = system: Fusarium culmorum (IMI 180420); experiment: Antifungal growth inhibition microplate assay (photospectrometry); type: cell-based; settings: ½ PDB; for IC50 / F CULMORUM IC50 / F CULMORUM IC: the source numbers peptides by N-terminal amino acid; for F CULMORUM IC50: Table 7 / FIG. 8: Rs-AFP1-based 12-mer split peptides; for F CULMORUM IC: Table 6 / FIG. 8: Rs-AFP1-based 9-mer split peptides
Method in brief: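 Spores (2×10^4/ml) in half-strength potato dextrose broth exposed to test solution, incubated in the dark at room temperature for about 72 h (96 h for V. dahliae). Growth by OD595 minus 30-min reading; IC50 is 50% and MIC 100% growth inhibition.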

[3] = Table 7: Rs-AFP1-based 12-mer split peptides
[4] = Table 4 / FIG. 6: Rs-AFP2-based 12-mer split peptides
[5] = Table 4: Rs-AFP2-based 12-mer split peptides, triplicate
[6] = Table 6: Rs-AFP1-based 9-mer split peptides
[7] = Table 3 / FIG. 6: Rs-AFP2-based 9-mer split peptides
[8] = Table 3: Rs-AFP2-based 9-mer split peptides, duplicate

What does the source list for CC[C@H](C)[C@H](NC(=O)[C@H](CS)NC(=O)[C@H](CCCCN)NC(=O)[C@H](Cc1c[nH]cn1)NC(=O)[C@H](C)NC(=O)[C@@H]1CCCN1C(=O)[C@H](Cc1ccccc1)NC(=O)[C@@H](NC(C)=O)C(C)C)C(=O)N[C@@H](CS)C(=O)N[C@@H](Cc1ccc(O)cc1)C(=O)N[C@@H](Cc1ccccc1)C(=O)N1CCC[C@H]1C(N)=O [compound 128] (Ac-VFPAHKCICYFP-NH2)?
A PISI IC50 [1, 3]: 181 µg/mL; A PISI MIC [1, 3]: 400 µg/mL; IC50 [2, 4]: 344 µg/mL (≈ 235 µM); MIC [2, 5]: >400 µg/mL; F CULMORUM IC50 [2]: 320 µg/mL; F CULMORUM MIC [2, 3]: >400 µg/mL

Ac-ARHGSCNYV-NH2 [compound 77] was tested. Which “A PISI MIC” value [1, 6] did it give?
Its value is 200 µg/mL.

What about the “A PISI IC” value [1, 6] of the same compound?
The value was 143 µg/mL.

What about the IC50 [2, 7] of the same compound?
The IC50 was 189 µg/mL.

And the MIC [2, 8]?
The MIC was 300 µg/mL.

What about the “F CULMORUM IC” value [2] of the same compound?
The value was 193 µg/mL.

And the “F CULMORUM MIC” value [2, 6]?
Its value is 300 µg/mL.

With Ac-CNYVFPAHK-NH2 [compound 82] as the compound, how does the “A PISI MIC” value [1, 6] read?
Its value is 400 µg/mL.

And the “A PISI IC” value [1, 6]?
The value was 265 µg/mL.

And the IC50 [2, 7]?
Its IC50 is 77 µg/mL.

What about the MIC [2, 8] of the same compound?
The MIC was 100 µg/mL.

What about the “F CULMORUM IC” value [2] of the same compound?
Its value is 113 µg/mL.

What about the “F CULMORUM MIC” value [2, 6] of the same compound?
The value was 150 µg/mL.

Which “A PISI IC50” value [1, 3] does the source give for Ac-EKARHGSCNYVF-NH2 [compound 118] here?
Its value is 91 µg/mL.

And the “A PISI MIC” value [1, 3]?
The value was 200 µg/mL.

And the IC50 [2, 4]?
Its IC50 is 154 µg/mL.

What about the MIC [2, 5] of the same compound?
The MIC was 200 µg/mL.

What about the “F CULMORUM IC50” value [2] of the same compound?
Its value is 63 µg/mL.

And the “F CULMORUM MIC” value [2, 3]?
The value was 100 µg/mL.

For Ac-HGSCNYVFPAHK-NH2 [compound 122], which “A PISI IC50” value [1, 3] is on record?
The value was 74 µg/mL.

What about the “A PISI MIC” value [1, 3] of the same compound?
Its value is 100 µg/mL.

What about the IC50 [2, 4] of the same compound?
Its IC50 is 30 µg/mL.

And the MIC [2, 5]?
The MIC was 50 µg/mL.

What about the “F CULMORUM IC50” value [2] of the same compound?
Its value is 35 µg/mL.

What about the “F CULMORUM MIC” value [2, 3] of the same compound?
The value was 50 µg/mL.

For Ac-KARHGSCNY-NH2 [compound 76], which “A PISI MIC” value [1, 6] is on record?
Its value is over 400 µg/mL.

And the “A PISI IC” value [1, 6]?
Its value is 342 µg/mL.

And the IC50 [2, 7]?
The IC50 was 162 µg/mL.

What about the MIC [2, 8] of the same compound?
The MIC was 300 µg/mL.

What about the “F CULMORUM IC” value [2] of the same compound?
Its value is 169 µg/mL.

What about the “F CULMORUM MIC” value [2, 6] of the same compound?
The value was 250 µg/mL.

Which results are given for Ac-KARHGSCNYVFP-NH2 [compound 119]?
A PISI IC50 [1, 3]: 66 µg/mL; A PISI MIC [1, 3]: 100 µg/mL; IC50 [2, 4]: 37 µg/mL; MIC [2, 5]: 50 µg/mL; F CULMORUM IC50 [2]: 33 µg/mL; F CULMORUM MIC [2, 3]: 50 µg/mL

Ac-LEKARHGSCNYV-NH2 [compound 117] was tested. Which “A PISI IC50” value [1, 3] did it give?
Its value is 293 µg/mL.

And the “A PISI MIC” value [1, 3]?
Its value is 400 µg/mL.

And the IC50 [2, 4]?
Its IC50 is 327 µg/mL.

What about the MIC [2, 5] of the same compound?
The MIC was over 400 µg/mL.

What about the “F CULMORUM IC50” value [2] of the same compound?
Its value is 347 µg/mL.

What about the “F CULMORUM MIC” value [2, 3] of the same compound?
Its value is 400 µg/mL.

Which “A PISI MIC” value [1, 6] does the source give for Ac-RHGSCNYVF-NH2 [compound 78] here?
Its value is 100 µg/mL.

What about the “A PISI IC” value [1, 6] of the same compound?
Its value is 70 µg/mL.

And the IC50 [2, 7]?
Its IC50 is 284 µg/mL.

And the MIC [2, 8]?
The MIC was 400 µg/mL.

What about the “F CULMORUM IC” value [2] of the same compound?
The value was 69 µg/mL.

What about the “F CULMORUM MIC” value [2, 6] of the same compound?
Its value is 100 µg/mL.
